Measured values reported in ChEMBL document CHEMBL1201862, “PubChem BioAssay data set” (2004).
The source made the active and inactive calls. Rule as the data show it: actives have a measured IC50 and inactives only a lower limit.

Experiments:
Format in all cases: functional
[1] = target: T1, Apoptotic protease-activating factor 1 (Homo sapiens, UniProt O14727)
T1 sequence (O14727 whole entry): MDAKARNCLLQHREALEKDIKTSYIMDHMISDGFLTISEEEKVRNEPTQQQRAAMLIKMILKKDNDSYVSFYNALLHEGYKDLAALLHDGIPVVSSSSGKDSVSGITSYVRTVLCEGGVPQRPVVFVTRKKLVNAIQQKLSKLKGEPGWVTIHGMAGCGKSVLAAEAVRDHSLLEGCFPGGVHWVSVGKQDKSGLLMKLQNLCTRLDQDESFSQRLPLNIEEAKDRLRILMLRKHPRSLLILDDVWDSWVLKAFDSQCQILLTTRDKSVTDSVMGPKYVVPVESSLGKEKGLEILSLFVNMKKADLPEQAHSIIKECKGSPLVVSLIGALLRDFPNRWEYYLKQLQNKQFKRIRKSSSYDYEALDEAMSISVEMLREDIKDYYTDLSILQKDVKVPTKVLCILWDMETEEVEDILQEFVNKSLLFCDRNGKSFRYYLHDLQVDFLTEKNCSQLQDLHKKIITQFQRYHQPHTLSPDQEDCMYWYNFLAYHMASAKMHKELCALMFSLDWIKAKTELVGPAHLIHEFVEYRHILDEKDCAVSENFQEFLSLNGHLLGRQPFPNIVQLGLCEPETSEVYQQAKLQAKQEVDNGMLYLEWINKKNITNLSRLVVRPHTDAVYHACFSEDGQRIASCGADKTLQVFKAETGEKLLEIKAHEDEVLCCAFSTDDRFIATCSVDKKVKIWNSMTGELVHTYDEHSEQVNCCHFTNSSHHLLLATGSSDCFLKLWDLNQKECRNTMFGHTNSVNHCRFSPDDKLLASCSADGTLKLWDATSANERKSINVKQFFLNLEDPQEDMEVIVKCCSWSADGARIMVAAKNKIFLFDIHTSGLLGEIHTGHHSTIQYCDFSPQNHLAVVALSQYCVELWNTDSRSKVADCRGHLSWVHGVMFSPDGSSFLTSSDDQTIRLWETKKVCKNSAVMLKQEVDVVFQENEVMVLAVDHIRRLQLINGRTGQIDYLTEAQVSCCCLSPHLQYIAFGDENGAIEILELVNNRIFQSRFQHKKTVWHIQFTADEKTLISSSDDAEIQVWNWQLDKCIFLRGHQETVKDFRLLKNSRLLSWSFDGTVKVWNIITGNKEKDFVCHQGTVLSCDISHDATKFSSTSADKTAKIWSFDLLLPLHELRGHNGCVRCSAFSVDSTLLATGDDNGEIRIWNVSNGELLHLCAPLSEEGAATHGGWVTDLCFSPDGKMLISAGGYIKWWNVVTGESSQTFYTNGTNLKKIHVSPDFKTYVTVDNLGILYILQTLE

[2] = target: T2, Sentrin-specific protease 7 (Homo sapiens, UniProt Q9BQF6);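 also: Luminescence-based dose-response confirmation of ultra-high-throughput screening hits, measuring inhibition of SENP7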
T2 sequence (Q9BQF6 whole entry): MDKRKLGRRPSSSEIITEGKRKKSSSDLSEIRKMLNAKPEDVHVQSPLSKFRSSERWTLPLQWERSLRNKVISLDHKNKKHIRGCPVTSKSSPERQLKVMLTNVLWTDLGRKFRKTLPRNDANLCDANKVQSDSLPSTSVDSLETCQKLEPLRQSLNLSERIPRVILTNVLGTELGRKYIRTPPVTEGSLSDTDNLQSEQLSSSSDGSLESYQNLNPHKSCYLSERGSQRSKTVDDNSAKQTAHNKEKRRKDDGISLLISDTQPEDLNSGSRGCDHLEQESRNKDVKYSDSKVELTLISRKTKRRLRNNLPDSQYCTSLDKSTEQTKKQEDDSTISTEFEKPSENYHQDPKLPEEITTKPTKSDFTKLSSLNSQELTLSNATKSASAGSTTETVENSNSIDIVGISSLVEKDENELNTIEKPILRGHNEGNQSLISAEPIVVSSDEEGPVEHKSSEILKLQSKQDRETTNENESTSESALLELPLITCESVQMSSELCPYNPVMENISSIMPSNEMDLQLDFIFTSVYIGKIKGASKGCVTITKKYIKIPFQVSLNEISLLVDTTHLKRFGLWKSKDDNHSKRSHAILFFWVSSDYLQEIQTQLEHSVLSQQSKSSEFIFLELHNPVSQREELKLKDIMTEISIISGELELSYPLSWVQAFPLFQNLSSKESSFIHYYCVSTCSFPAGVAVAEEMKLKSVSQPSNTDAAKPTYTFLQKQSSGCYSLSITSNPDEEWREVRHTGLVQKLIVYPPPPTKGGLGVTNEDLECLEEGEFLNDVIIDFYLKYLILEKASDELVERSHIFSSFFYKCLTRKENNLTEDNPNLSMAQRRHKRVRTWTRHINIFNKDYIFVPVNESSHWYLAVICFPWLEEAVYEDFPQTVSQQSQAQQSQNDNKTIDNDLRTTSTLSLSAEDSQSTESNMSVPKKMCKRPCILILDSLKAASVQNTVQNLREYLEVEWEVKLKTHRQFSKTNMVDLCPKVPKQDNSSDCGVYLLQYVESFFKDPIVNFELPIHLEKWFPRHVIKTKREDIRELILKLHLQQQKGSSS

Caspase-3 = target: T3, Caspase-3 (Homo sapiens, UniProt P42574);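 also: Dose-response selectivity test against caspase-3 for candidate inhibitors of sentrin-specific proteases (SENPs)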
T3 sequence (P42574 whole entry): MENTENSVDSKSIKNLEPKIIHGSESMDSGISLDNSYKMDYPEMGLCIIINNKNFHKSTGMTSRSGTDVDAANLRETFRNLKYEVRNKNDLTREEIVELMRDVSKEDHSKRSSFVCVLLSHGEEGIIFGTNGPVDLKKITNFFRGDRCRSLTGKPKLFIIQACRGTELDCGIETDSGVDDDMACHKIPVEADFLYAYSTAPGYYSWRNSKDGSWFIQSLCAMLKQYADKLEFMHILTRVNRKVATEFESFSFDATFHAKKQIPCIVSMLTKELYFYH

| Structure (SMILES) | IC50 [1] | IC50 [2] | IC50 (Caspase-3) |
| --- | --- | --- | --- |
| Oc1ccc(/C=N/Nc2cc(N3CCCC3)nc(N3CCCC3)n2)cc1 | 707 nM (active) | 31 µM (active) | > 100 µM (inactive) |
| COc1ccc(S(=O)(=O)/N=C2\C=C(Nc3ccc(O)cc3)C(=O)c3ccccc32)cc1 | 441 nM (active) |  |  |
| COc1ccc(/C=N/Nc2cc(N3CCCC3)nc(N3CCCC3)n2)cc1 | 2630 nM (active) | 5.23 µM (active) | > 100 µM (inactive) |
